Source: patent publication US20070112043A1, “Acylated and non-acylated imidazo[2,1-b]-1,3,4,-thiadiazole-2-sulfonamides, and uses thereof” (priority 2003, published 2007)

Legend:
[1] = Solubility in water and formulations; details: TFA salts, not neutralized
Protocol: (§1) Alternatively, the sodium salt can be prepared in situ by dissolving the free acid in phosphate buffered saline (PBS) that has been buffered to a pH of 7.4. The solubility and stability of these solutions can be improved by the use of an aqueous soluble co-solvent such as, but not limited to HPCD. This solubility can be further improved by the addition of surfactants such as PEG 400. In general, the free acid is suspended in 10 wt/vol % HPDC (10 g dissolved in 100 mL water) and treated with 0.5M PBS (pH 7.4) such that the volumes are in a ratio of 75:25.

[2] = physchem; details: water
Protocol: as §1

SMILES | solubility [2] [µg/mL] | solubility in water or in 10% HPCD [1]
CSCCC(N)C(=O)NS(=O)(=O)c1nn2cc(-c3ccccc3)nc2s1 (centres unmarked) [Compound 24] |  | not soluble
O=C(NS(=O)(=O)c1nn2cc(-c3ccccc3)nc2s1)C1CCCN1 (centres unmarked) [Compound 26] |  | not soluble
NS(=O)(=O)c1nn2cc(-c3ccc(Cl)c(Cl)c3Cl)nc2s1 [Compound 58] | < 500 | 
CC(=O)OCCOc1ccc(-c2cn3nc(S(N)(=O)=O)sc3n2)cc1 [Compound 69] | < 500 | 
NS(=O)(=O)c1nn2cc(-c3ccc(OCCC(F)(F)F)cc3)nc2s1 [Compound 70] | < 500 | 
COCCOCCOc1ccc(-c2cn3nc(S(N)(=O)=O)sc3n2)cc1 [Compound 71] | < 500 | 
NS(=O)(=O)c1nn2cc(-c3ccc(OCCOCc4ccccc4)cc3)nc2s1 [Compound 72] | < 500 | 
NS(=O)(=O)c1nn2cc(-c3ccc(OCCCOCc4ccccc4)cc3)nc2s1 [Compound 73] | < 500 | 
CC(C)(C)c1cc(-c2cn3nc(S(N)(=O)=O)sc3n2)c2c(c1)C(C)(C)CC2 [Compound 82] | < 500 | 
Cc1ccc(C23CC4CC(CC2C4)C3)cc1-c1cn2nc(S(N)(=O)=O)sc2n1 [Compound 83] | < 500 | 
NS(=O)(=O)c1nn2cc(-c3ccc(C(F)(F)F)cc3)nc2s1 [Compound 84] | < 500 | 
NS(=O)(=O)c1nn2cc(-c3cc(C(F)(F)F)ccc3Cl)nc2s1 [Compound 85] | < 500 | 
NS(=O)(=O)c1nn2cc(-c3cc(C(F)(F)F)cc(C(F)(F)F)c3)nc2s1 [Compound 86] | < 500 | 
CC(C)(C)c1cc(-c2cn3nc(S(N)(=O)=O)sc3n2)cc(C(C)(C)C)c1 [Compound 87] | < 500 | 
CC1(C)CCC(C)(C)c2cc(-c3cn4nc(S(N)(=O)=O)sc4n3)ccc21 [Compound 88] | < 500 | 
CC(=O)N[C@H](C)c1ccc(-c2cn3nc(S(N)(=O)=O)sc3n2)cc1 [Compound 90] | < 500 | 
NS(=O)(=O)c1nn2cc(C(F)(F)F)nc2s1 [Compound 91] | < 500 | 
NS(=O)(=O)c1nn2cc(C34CC5CC(CC(C5)C3)C4)nc2s1 [Compound 92] | < 500 | 
NS(=O)(=O)c1nn2cc(-c3cccc4ccccc34)nc2s1 [Compound 93] | < 500 | 
NS(=O)(=O)c1nn2cc(-c3ccc(N4CCCCC4)cc3)nc2s1 [Compound 96] | < 500 | 
NS(=O)(=O)c1nn2cc(-c3ccc(-c4ccccc4)cc3)nc2s1 [Compound 98] | < 500 | 
NS(=O)(=O)c1nn2cc(-c3ccc(-c4c(F)c(F)c(F)c(F)c4F)cc3)nc2s1 [Compound 99] | < 500 | 
COc1ccccc1-c1ccc(-c2cn3nc(S(N)(=O)=O)sc3n2)cc1 [Compound 100] | < 500 | 
NS(=O)(=O)c1nn2cc(-c3ccc(-c4cccc(OC(F)(F)F)c4)cc3)nc2s1 [Compound 102] | < 500 | 
NS(=O)(=O)c1nn2cc(-c3ccc(-c4ccc5c(c4)OCO5)cc3)nc2s1 [Compound 103] | < 500 | 
NS(=O)(=O)c1nn2cc(-c3ccc(-c4ccccc4C(F)(F)F)cc3)nc2s1 [Compound 104] | < 500 | 
NS(=O)(=O)c1nn2cc(-c3ccc(-c4ccc(C(F)(F)F)cc4)cc3)nc2s1 [Compound 105] | < 500 | 

SMILES | solubility [2] [µg/mL] | solubility in water or in 10% HPCD [1]
NS(=O)(=O)c1nn2cc(-c3ccc(-c4cc(C(F)(F)F)cc(C(F)(F)F)c4)cc3)nc2s1 [Compound 106] | < 500 | 
NS(=O)(=O)c1nn2cc(-c3ccc(-c4cccs4)cc3)nc2s1 [Compound 107] | < 500 | 
NS(=O)(=O)c1nn2cc(-c3ccc(-c4ccsc4)cc3)nc2s1 [Compound 108] | < 500 | 
NS(=O)(=O)c1nn2cc(-c3ccc(Oc4ccccc4)cc3)nc2s1 [Compound 110] | < 500 | 
NS(=O)(=O)c1nn2cc(-c3ccc(Oc4ccc(F)cc4)cc3)nc2s1 [Compound 111] | < 500 | 
NS(=O)(=O)c1nn2cc(-c3ccc(Oc4ccc(F)c(F)c4)cc3)nc2s1 [Compound 112] | < 500 | 
NS(=O)(=O)c1nn2cc(-c3ccc(Oc4ccc(Cl)c(Cl)c4)cc3)nc2s1 [Compound 113] | < 500 | 
NS(=O)(=O)c1nn2cc(-c3ccc(Oc4ccccc4Br)cc3)nc2s1 [Compound 114] | < 500 | 
CN(C)c1cccc(Oc2ccc(-c3cn4nc(S(N)(=O)=O)sc4n3)cc2)c1 [Compound 117] | < 500 | 
CC(C)c1ccc(Oc2ccc(-c3cn4nc(S(N)(=O)=O)sc4n3)cc2)cc1 [Compound 118] | < 500 | 
COc1ccc(Oc2ccc(-c3cn4nc(S(N)(=O)=O)sc4n3)cc2)cc1 [Compound 119] | < 500 | 
NS(=O)(=O)c1nn2cc(-c3ccc(Oc4ccc([N+](=O)[O-])cc4)cc3)nc2s1 [Compound 120] | < 500 | 
NS(=O)(=O)c1nn2cc(-c3ccccn3)nc2s1 [Compound 123] | < 500 | 
NS(=O)(=O)c1nn2cc(-c3cnccn3)nc2s1 [Compound 126] | < 500 | 
NS(=O)(=O)c1nn2cc(-c3cc4ccccc4oc3=O)nc2s1 [Compound 127] | < 500 | 
NS(=O)(=O)c1nn2cc(-c3ccc4c(c3)NC(=O)CO4)nc2s1 [Compound 128] | < 500 | 
NS(=O)(=O)c1nn2cc(-c3cc4ccccc4o3)nc2s1 [Compound 129] | < 500 | 
NS(=O)(=O)c1nn2cc(-c3cccs3)nc2s1 [Compound 130] | < 500 | 
NS(=O)(=O)c1nn2cc(-c3ccc(-c4ccccc4)s3)nc2s1 [Compound 131] | < 500 | 
Br.NS(=O)(=O)c1nn2cc(-c3ccc([N+](=O)[O-])s3)nc2s1 [Compound 132] | < 500 | 
Cc1c(-c2cn3nc(S(N)(=O)=O)sc3n2)sc2ccccc12 [Compound 133] | < 500 | 
NS(=O)(=O)c1nn2cc(-c3cc(-c4ccccc4)no3)nc2s1 [Compound 135] | < 500 | 
Cc1onc(-c2ccccc2)c1-c1cn2nc(S(N)(=O)=O)sc2n1 [Compound 136] | < 500 | 
Cc1c(-c2cn3nc(S(N)(=O)=O)sc3n2)cnn1-c1ccccc1 [Compound 137] | < 500 | 
NS(=O)(=O)c1nn2cc(-c3nccs3)nc2s1 [Compound 138] | < 500 | 
Cc1nc(C)c(-c2cn3nc(S(N)(=O)=O)sc3n2)s1 [Compound 139] | < 500 | 
CNS(=O)(=O)c1nn2cc(-c3ccccc3)nc2s1 [Compound 140] | < 500 | 

Now from value to compound, other results behind:

solubility [2] [µg/mL] | SMILES | solubility in water or in 10% HPCD [1]
< 500 | NS(=O)(=O)c1nn2cc(-c3ccccc3F)nc2s1 [Compound 52] | 
< 500 | NS(=O)(=O)c1nn2cc(-c3cccc(F)c3)nc2s1 [Compound 53] | 
< 500 | NS(=O)(=O)c1nn2cc(-c3ccc(F)cc3)nc2s1 [Compound 54] | 
< 500 | NS(=O)(=O)c1nn2cc(-c3ccc(F)c(F)c3)nc2s1 [Compound 55] | 
< 500 | NS(=O)(=O)c1nn2cc(-c3ccc(Cl)cc3)nc2s1 [Compound 56] | 
< 500 | NS(=O)(=O)c1nn2cc(-c3ccc(Cl)c(Cl)c3)nc2s1 [Compound 57] | 
< 500 | NS(=O)(=O)c1nn2cc(-c3cccc(Br)c3)nc2s1 [Compound 59] | 
< 500 | NS(=O)(=O)c1nn2cc(-c3ccc(Br)cc3)nc2s1 [Compound 60] | 
< 500 | COc1cccc(-c2cn3nc(S(N)(=O)=O)sc3n2)c1 [Compound 61] | 
< 500 | COc1ccc(-c2cn3nc(S(N)(=O)=O)sc3n2)cc1 [Compound 62] | 
< 500 | COc1ccc(OC)c(-c2cn3nc(S(N)(=O)=O)sc3n2)c1 [Compound 63] | 
< 500 | COc1ccc(-c2cn3nc(S(N)(=O)=O)sc3n2)c(OC)c1 [Compound 64] | 
< 500 | NS(=O)(=O)c1nn2cc(-c3ccc4c(c3)OCO4)nc2s1 [Compound 65] | 
< 500 | NS(=O)(=O)c1nn2cc(-c3cccc(OC(F)(F)F)c3)nc2s1 [Compound 66] | 
< 500 | NS(=O)(=O)c1nn2cc(-c3ccc(OC(F)(F)F)cc3)nc2s1 [Compound 67] | 
< 500 | NS(=O)(=O)c1nn2cc(-c3ccc(OCCO)cc3)nc2s1 [Compound 68] | 
< 500 | NS(=O)(=O)c1nn2cc(-c3cccc([N+](=O)[O-])c3)nc2s1 [Compound 74] | 
< 500 | NS(=O)(=O)c1nn2cc(-c3ccc(Cl)c([N+](=O)[O-])c3)nc2s1 [Compound 75] | 
< 500 | COC(=O)c1ccc(-c2cn3nc(S(N)(=O)=O)sc3n2)cc1 [Compound 76] | 
< 500 | N#Cc1cccc(-c2cn3nc(S(N)(=O)=O)sc3n2)c1 [Compound 77] | 
< 500 | N#Cc1ccc(-c2cn3nc(S(N)(=O)=O)sc3n2)cc1 [Compound 78] | 
< 500 | Cc1ccc(-c2cn3nc(S(N)(=O)=O)sc3n2)cc1 [Compound 79] | 
< 500 | Cc1ccc(-c2cn3nc(S(N)(=O)=O)sc3n2)c(C)c1 [Compound 80] | 
< 500 | CC(C)(C)c1ccc(-c2cn3nc(S(N)(=O)=O)sc3n2)cc1 [Compound 81] | 
< 500 | NS(=O)(=O)c1nn2cc(-c3ccc4ccccc4c3)nc2s1 [Compound 94] | 
< 500 | COc1ccc(-c2ccc(-c3cn4nc(S(N)(=O)=O)sc4n3)cc2)cc1 [Compound 101] | 
< 500 | COc1ccc(-c2cccc(-c3cn4nc(S(N)(=O)=O)sc4n3)c2)cc1 [Compound 109] | 
< 500 | NS(=O)(=O)c1nn2cc(-c3ccc(Oc4cccc(Br)c4)cc3)nc2s1 [Compound 115] | 
< 500 | Cc1ccc(-c2cn3nc(S(N)(=O)=O)sc3n2)cc1Cl [Compound 122] | 
